The target of assay [1] is T1, Muscarinic acetylcholine receptor M1 (Homo sapiens) (UniProt P11229).
T1 sequence (whole entry): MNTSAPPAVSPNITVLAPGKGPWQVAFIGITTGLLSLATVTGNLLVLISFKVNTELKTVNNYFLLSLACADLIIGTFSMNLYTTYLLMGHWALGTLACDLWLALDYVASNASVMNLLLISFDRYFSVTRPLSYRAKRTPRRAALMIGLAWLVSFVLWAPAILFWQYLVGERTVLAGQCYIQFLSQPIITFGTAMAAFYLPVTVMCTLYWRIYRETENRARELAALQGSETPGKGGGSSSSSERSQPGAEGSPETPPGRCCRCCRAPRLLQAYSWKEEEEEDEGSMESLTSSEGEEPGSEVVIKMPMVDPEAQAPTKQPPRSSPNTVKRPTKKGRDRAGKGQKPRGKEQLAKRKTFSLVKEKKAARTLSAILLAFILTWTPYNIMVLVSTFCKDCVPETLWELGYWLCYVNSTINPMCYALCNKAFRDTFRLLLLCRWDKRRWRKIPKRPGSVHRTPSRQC
In words: Partial agonist activity at human muscarinic M1 acetylcholine receptor expressed in CHO cells assessed as increase in IP1 accumulation at 10 uM incubated for 30 mins in presence of 1 uM Gq protein inhibitor UBO-QIC by FRET based HTRF assay. The format is functional, cell-based. A general note: In TR-FRET formats the signal depends on donor and acceptor labels being close together.

The target of assay [2] is T2, Muscarinic acetylcholine receptor M1 (Homo sapiens, UniProt P11229).
T2 sequence (P11229 whole entry): T1 sequence (whole entry)
In words: biochemical.

The target of assay [3] is T2, Muscarinic acetylcholine receptor M1.
Description: Partial agonist activity at human muscarinic M1 acetylcholine receptor expressed in CHO cells assessed as increase in IP1 accumulation incubated for 30 mins by FRET based HTRF assay
In assay [4] the target is T1, Muscarinic acetylcholine receptor M1 (Homo sapiens). In words: Partial agonist activity at human muscarinic M1 acetylcholine receptor expressed in CHO cells assessed as increase in IP1 accumulation at 10 uM incubated for 30 mins in presence of 100 ng/ml Gi protein inhibitor PTX by FRET based HTRF assay. The format is functional, cell-based.
For assay [5] the target is unchanged. In words: Partial agonist activity at human muscarinic M1 acetylcholine receptor expressed in CHO cells assessed as increase in IP1 accumulation at 10 uM incubated for 30 mins by FRET based HTRF assay relative to 100 uM acetylcholine. The format is functional, cell-based.
Assay [6] has the same target. In words: Displacement of [3H]NMS from human muscarinic M1 acetylcholine receptor expressed in CHO cell membranes at 1 uM by radioligand binding assay. Background: Displacement assays read how much labelled ligand stays bound in the presence of the test substance.
Assay [7] shares this target. In words: Partial agonist activity at human muscarinic M1 acetylcholine receptor expressed in CHO cells assessed as increase in IP1 accumulation at 10 uM incubated for 30 mins by FRET based HTRF assay. The format is functional, cell-based.
The target is the same in assay [8]. In words: Agonist activity at human muscarinic M1 acetylcholine receptor expressed in CHO cells assessed as increase in IP1 accumulation at 1 uM incubated for 30 mins by FRET based HTRF assay. The format is functional, cell-based.
Assay [9] shares this target. In words: Modulator activity at human muscarinic M1 acetylcholine receptor expressed in CHO cell membranes assessed as reduction in pIC50 for acetylcholine-induced inhibition of [3H]NMS binding by radioligand binding assay.
Assay [10] has the same target. As to conditions: CHO.
Description: Displacement of [3H]NMS from human muscarinic M1 acetylcholine receptor expressed in CHO cell membranes assessed as equilibrium dissociation constant of dynamic ligand for active receptor binding pose by radioligand binding assay
For assay [11] the target is unchanged. In words: Allosteric inhibition of [3H]NMS dissociation from human muscarinic M1 acetylcholine receptor expressed in CHO cell membranes by radioligand binding assay.
Assay [12] shares this target. In words: Modulator activity at human muscarinic M1 acetylcholine receptor expressed in CHO cell membranes assessed as induction of left shift of acetylcholine-induced inhibition of [3H]NMS binding by radioligand binding assay.
The target is the same in assay [13]. In words: Allosteric inhibition of [3H]NMS dissociation rate constant k_1 from human muscarinic M1 acetylcholine receptor expressed in CHO cell membranes by radioligand binding assay. The settings on record: concentration not given here.
Assay [14] shares this target. As to conditions: CHO. The source holds these as a separate data set.
Description: Displacement of [3H]NMS from human muscarinic M1 acetylcholine receptor expressed in CHO cell membranes assessed as equilibrium dissociation constant of dynamic ligand for inactive receptor binding pose by radioligand binding assay
The target is the same in assay [15]. In words: Allosteric inhibition of [3H]NMS dissociation from human muscarinic M1 acetylcholine receptor expressed in CHO cell membranes assessed as half life of dissociation by radioligand binding assay.
Assay [16] has the same target. In words: Allosteric inhibition of [3H]NMS dissociation from human muscarinic M1 acetylcholine receptor expressed in CHO cell membranes assessed as […] in half life of dissociation by radioligand binding assay.
Assay [17] has the same target. In words: Partial agonist activity at human muscarinic M1 acetylcholine receptor expressed in CHO cells assessed as increase in IP1 accumulation at 1 uM incubated for 30 mins by FRET based HTRF assay relative to 100 uM acetylcholine. The format is functional, cell-based.
Assay [18] has the same target. In words: Displacement of [3H]NMS from human muscarinic M1 acetylcholine receptor expressed in CHO cell membranes by radioligand binding assay.
Assay [19] shares this target. In words: Partial agonist activity at human muscarinic M1 acetylcholine receptor expressed in CHO cells assessed as increase in IP1 accumulation at 0.3 uM incubated for 30 mins by FRET based HTRF assay relative to 100 uM acetylcholine. The format is functional, cell-based.
For assay [20] the target is unchanged. In words: Partial agonist activity at human muscarinic M1 acetylcholine receptor expressed in CHO cells assessed as increase in IP1 accumulation at 10 uM incubated for 30 mins by FRET based HTRF assay in presence of 1 uM atropine. The format is functional, cell-based.

Calls of active or inactive are those of the source. The rule behind the calls is not given here.

As usually defined, the Kd is the equilibrium constant for the complex coming apart. Low values mean a tighter complex, high ones a looser complex. By EC50 is commonly meant the concentration at which the effect is half-maximal. A high value points to lower potency in that assay. Turning to `C[N+](C)(CC#CCOC1=NOCC1)CCCCNC(=O)c1cn(Cc2ccccc2)c2cc(Cl)c(F)cc2c1=O`, the result in [1] was inactive. Further, binding in [2] was put at a Kd of 72.4 nM. In addition, the EC50 in [3] is 32.4 nM.

In general, Emax refers to the size of the effect at its maximum, as opposed to the concentration needed. Turning to `CC[C@@H]1SC2(CCNCC2)N(CCCCCCCCOc2ccc3cc(Cn4cc(C(=O)O)c(=O)c5cccc(F)c54)ccc3c2)C1=O`, in [4], the outcome was Active. The Kd in assay [2] is 166 nM. Besides, the Emax in [5] came out at 61%. In [3], this compound gave an EC50 of 60.3 nM.

As for `C[N+](C)(C)CC#CCOC1=NOCC1`, the equilibrium dissociation constant (Kd) in assay [2] was 2140 nM. The same compound showed a concentration giving a half-maximal response (EC50) in assay [3] of 2.04 nM.

Broadly, the inhibition is how much of the control response was suppressed. Consider `O=C(NCCCCCCBr)c1cn(Cc2ccccc2)c2cc(Cl)c(F)cc2c1=O`, for which the inhibition entry in assay [6] was “Active”. Further, the result in assay [7] and in [8] was inactive.

As to `C[N+](C)(CC#CCOC1=NOCC1)CCCCNC(=O)c1cn(Cc2ccccc2)c2cc(Br)ccc2c1=O`, the result in [1] was inactive. This compound showed a Kd in [2] of 141 nM. In assay [3], the EC50 was 63.1 nM.

One may read the pKb as the Kb on a negative log10 scale, so that one unit is a factor of ten. A low value points to a large Kb. Take `C[N+](C)(CC#CCOC1=NOCC1)CCCCCCNC(=O)c1cn(Cc2ccccc2)c2c(F)cccc2c1=O`: the inhibition entry in assay [9] was “Active”. This compound also yielded a pKA in assay [10] of 6.98. Moreover, in assay [1], the result was inactive. Besides, the pEC0.5 in assay [11] was determined as 6.1. In assay [12], the inhibition result was “inactive”. This compound also came in with an inhibition in assay [13] of 15%. Moreover, in [2], the Kd was 490 nM. The pKb in [14] was 6.3. In assay [3], this compound had a half-maximal effective concentration (EC50) of 178 nM.

Regarding `C[N+](C)(CC#CCOC1=NOCC1)CCCCCCNC(=O)c1cn(Cc2ccccc2)c2cc(Br)ccc2c1=O`, the result in [1] was inactive. The compound further had a Kd in assay [2] of 74.1 nM. For the same compound, the midpoint of the response in assay [3], the EC50, lay at 15.5 nM.

For `O=C(NCCCCCCBr)c1cn(Cc2ccccc2)c2cc(Br)ccc2c1=O`, the inhibition entry in assay [6] is “Active”. Further, the result in [7] and in [8] was inactive.

For `C[N+](C)(CC#CCOC1=NOCC1)CCCCCCNC(=O)c1cn(Cc2ccccc2)c2cc(Cl)c(F)cc2c1=O`, the result in assay [1] was inactive. In assay [2], this compound showed a Kd of 851 nM. For the same compound, in [3], the EC50 was 302 nM.

On to `CCCCCCCCN1CCC(n2c(=O)[nH]c3ccccc32)CC1`, for which the pEC0.5 in [11] worked out at 5.94. Moreover, the T1/2 in assay [15] was determined as 8.9 min. For the same compound, the fold change (FC) in assay [16] was determined as 3. Besides, the result in assay [4] was Active. In assay [13], this compound had an inhibition of 36%. In addition, in [3], the response was half-maximal at 537 nM (EC50).

As to `C[N+](C)(CC#CCOC1=NOCC1)CCCCNC(=O)c1cn(Cc2ccccc2)c2c(F)cccc2c1=O`, in assay [9], the inhibition result was “Active”. The compound also showed a pKA in [10] of 6.64. Besides, in assay [1], the outcome was inactive. Further, the pEC0.5 in assay [11] was determined as 6.04. Also, the inhibition entry in assay [12] is “inactive”. The inhibition in assay [13] came to 18%. This compound showed a Kd in assay [2] of 151 nM. For the same compound, the pKb in assay [14] was 6.92. In addition, it took 57.5 nM to reach a half-maximal effect in assay [3] (EC50).

Turning to `CCCCCCCCOc1ccc2cc(Cn3cc(C(=O)O)c(=O)c4cccc(F)c43)ccc2c1`, in assay [17], the Emax worked out at 1%. In addition, the outcome in [4] was Active.

Regarding `C[N+](C)(CC#CCOC1=NOCC1)CCCCCCNC(=O)c1cn(Cc2ccccc2)c2ccc(F)cc2c1=O`, in assay [1], the result was inactive. The dissociation constant Kd in assay [2] is 151 nM. The compound further gave an EC50 in assay [3] of 58.9 nM.

For the compound `O=C(NCCCCBr)c1cn(Cc2ccccc2)c2c(F)cccc2c1=O`, in assay [9], the inhibition entry is “Active”. For the same compound, in assay [11], the pEC0.5 stood at 5.9. The inhibition result in assay [12] was “inactive”. In addition, the inhibition in assay [13] is 35%. Moreover, the result in assay [7] and in [8] was inactive. This compound displayed an Imax in assay [18] of 3 µM.

As for `COc1ccc(Cn2cc(C(=O)O)c(=O)c3ccccc32)cc1`, the result in assay [7] was Active. Moreover, the outcome in [8] was inactive.

With `COc1ccc2cc(Cn3cc(C(=O)O)c(=O)c4cccc(F)c43)ccc2c1`, the result in [4] was Active. In [19], the maximal effect (Emax) is 1%.

On to `CC[C@@H]1SC2(CCNCC2)NC1=O`, for which the Emax in [5] amounted to 12%.

As to `CC[C@@H]1SC2(CCNCC2)N(CCCOc2ccc3cc(Cn4cc(C(=O)O)c(=O)c5cccc(F)c54)ccc3c2)C1=O`, the outcome in assay [20] was inactive. In addition, the outcome in [4] was Active. The Emax in [5] stood at 55%.

On to `O=C(NCCCCCCBr)c1cn(Cc2ccccc2)c2c(F)cccc2c1=O`, for which the inhibition result in [9] was “Active”. Also, the pEC0.5 in [11] was 6.15. In [12], the inhibition result is “inactive”. Further, in assay [13], the inhibition was found to be 47%. In addition, the outcome in [7] and in [8] was inactive. Besides, in assay [18], the Imax came out at 10 µM.

In the case of `O=C(NCCCCBr)c1cn(Cc2ccccc2)c2cc(Cl)c(F)cc2c1=O`, the result in [7] and in [8] was inactive.

Regarding `O=C(NCCCCBr)c1cn(Cc2ccccc2)c2cc(Br)ccc2c1=O`, the result in [7] and in assay [8] was inactive.

Values taken from ChEMBL document CHEMBL3414563, “Rational design of partial agonists for the muscarinic m1 acetylcholine receptor” (J Med Chem, 2015).
